Assay results taken from patent publication US12171756B2, “NLRP3 modulators” (Innate Tumor Immunity, Inc., priority 2017, dated 2024).

Key:
human TLR7 = biological target: T1, human TLR7 (Homo sapiens, UniProt Q9NYK1); test: In vitro human TLR7 binding reporter assay (HEK-Blue, NF-kB/AP1-inducible SEAP); format: cell-based; settings: HEK-Blue human TLR7 SEAP reporter cells; activity range classes; read-out: TLR7 Agonist EC50
T1 construct: host or cells: human HEK-Blue cells (HEK293-derived) co-expressing TLR7 and an NF-kB/AP1-inducible SEAP reporter
T1 sequence (Q9NYK1 27-1049): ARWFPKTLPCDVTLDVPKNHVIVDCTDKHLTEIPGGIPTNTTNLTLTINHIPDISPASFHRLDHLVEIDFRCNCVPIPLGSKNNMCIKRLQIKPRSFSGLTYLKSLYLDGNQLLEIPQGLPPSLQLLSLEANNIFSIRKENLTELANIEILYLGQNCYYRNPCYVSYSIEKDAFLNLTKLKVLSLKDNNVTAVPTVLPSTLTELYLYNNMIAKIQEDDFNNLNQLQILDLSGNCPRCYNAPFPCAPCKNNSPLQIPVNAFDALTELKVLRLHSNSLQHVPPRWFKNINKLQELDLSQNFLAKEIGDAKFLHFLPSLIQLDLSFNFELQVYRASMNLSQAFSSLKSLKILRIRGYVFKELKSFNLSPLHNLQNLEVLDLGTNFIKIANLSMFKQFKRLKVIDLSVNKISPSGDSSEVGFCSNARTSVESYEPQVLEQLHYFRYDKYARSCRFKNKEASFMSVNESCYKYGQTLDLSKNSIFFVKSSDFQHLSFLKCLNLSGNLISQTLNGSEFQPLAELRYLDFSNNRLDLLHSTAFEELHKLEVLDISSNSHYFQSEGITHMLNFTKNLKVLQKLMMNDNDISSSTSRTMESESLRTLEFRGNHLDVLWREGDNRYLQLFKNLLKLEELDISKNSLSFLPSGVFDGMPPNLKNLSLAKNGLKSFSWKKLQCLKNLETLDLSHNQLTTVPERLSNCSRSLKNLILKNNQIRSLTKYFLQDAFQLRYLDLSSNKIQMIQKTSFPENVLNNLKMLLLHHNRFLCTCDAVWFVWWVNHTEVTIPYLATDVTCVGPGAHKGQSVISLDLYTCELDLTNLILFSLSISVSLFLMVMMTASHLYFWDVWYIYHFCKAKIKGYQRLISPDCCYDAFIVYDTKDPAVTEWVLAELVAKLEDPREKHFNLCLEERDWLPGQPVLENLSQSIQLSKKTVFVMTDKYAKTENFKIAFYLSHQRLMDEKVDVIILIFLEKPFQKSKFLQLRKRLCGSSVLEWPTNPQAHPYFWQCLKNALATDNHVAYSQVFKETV
Description: (§1) In Vitro Human TLR7 and TLR8 Binding Reporter Assays
(§2) Logarithmically-growing human HEK-Blue cells co-expressing a TLR7 or TLR8 gene and a NF-kB/AP1-inducible SEAP (secreted embryonic alkaline phosphatase; Invivogen, San Diego, CA) reporter gene are added to individual wells of a 384-well plate (15,000 cells per 20 μL per well) and maintained for 24 h at 37° C., 5% CO2. Test compounds or DMSO are distributed to separate wells the next day using acoustic liquid handling technology (100 nL per well) and cells are subsequently incubated for 18 h at 37° C., 5% CO2. Cellular SEAP production is measured using an Envision plate reader instrument thirty minutes after adding freshly-made Quanti-Blue reagent (prepared by following manufacturer instructions; Invivogen, San Diego, CA) to the HEK-Blue TLR Nf-kB-SEAP cell reactions. All EC50 values (half-maximal effective concentration) are determined using proprietary data analysis software. Normalized EC50 value=absolute value determined by setting 100% Ymax using a reference standard RLU (relative light unit) values from cells treated with 50 μM of the reference standard.

human TLR8 = biological target: T2, human TLR8 (Homo sapiens, UniProt Q9NR97); test: In vitro human TLR8 binding reporter assay (HEK-Blue, NF-kB/AP1-inducible SEAP); format: cell-based; settings: HEK-Blue human TLR8 SEAP reporter cells; activity range classes; read-out: TLR8 Agonist EC50
T2 construct: host or cells: human HEK-Blue cells (HEK293-derived) co-expressing TLR8 and an NF-kB/AP1-inducible SEAP reporter
T2 sequence (Q9NR97 27-1041): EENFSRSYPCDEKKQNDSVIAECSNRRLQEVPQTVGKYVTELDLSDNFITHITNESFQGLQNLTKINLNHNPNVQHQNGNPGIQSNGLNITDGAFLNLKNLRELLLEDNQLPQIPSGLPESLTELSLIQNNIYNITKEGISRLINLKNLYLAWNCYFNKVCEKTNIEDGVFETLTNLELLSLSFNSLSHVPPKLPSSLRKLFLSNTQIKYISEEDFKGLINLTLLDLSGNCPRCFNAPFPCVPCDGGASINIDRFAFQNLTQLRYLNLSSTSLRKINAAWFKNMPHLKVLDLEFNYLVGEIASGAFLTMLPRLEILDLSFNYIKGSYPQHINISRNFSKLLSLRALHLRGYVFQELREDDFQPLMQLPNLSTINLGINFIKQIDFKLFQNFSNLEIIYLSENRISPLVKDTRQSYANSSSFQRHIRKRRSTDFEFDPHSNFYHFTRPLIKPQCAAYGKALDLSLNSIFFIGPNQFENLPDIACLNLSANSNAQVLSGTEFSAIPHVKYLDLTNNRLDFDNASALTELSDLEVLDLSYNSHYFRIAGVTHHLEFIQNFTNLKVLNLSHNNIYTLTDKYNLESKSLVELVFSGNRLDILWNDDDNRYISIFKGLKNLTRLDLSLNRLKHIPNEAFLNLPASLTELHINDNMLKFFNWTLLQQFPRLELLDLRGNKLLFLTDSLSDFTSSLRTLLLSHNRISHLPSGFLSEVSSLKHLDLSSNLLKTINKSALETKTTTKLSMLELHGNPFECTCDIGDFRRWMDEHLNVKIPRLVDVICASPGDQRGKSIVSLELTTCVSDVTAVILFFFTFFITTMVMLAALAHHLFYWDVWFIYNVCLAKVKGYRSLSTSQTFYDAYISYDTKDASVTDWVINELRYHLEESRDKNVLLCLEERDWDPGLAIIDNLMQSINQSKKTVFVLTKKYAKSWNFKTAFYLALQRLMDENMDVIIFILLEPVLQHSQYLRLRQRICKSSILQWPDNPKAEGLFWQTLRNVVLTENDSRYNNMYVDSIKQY
Description: as §1, §2

[1] = test system: IL-1β production in PMA-differentiated THP-1 cells; test: Measurement of IL-1β production in PMA-differentiated THP-1 cells (ELISA, 4 hours); format: cell-based, human; settings: Homo sapiens, THP-1, human IL-1β production, assayed using one or more of the described procedures, read-out: NLRP3 hIL1B IC50
Description: Measurement of IL-1β Production in PMA-Differentiated THP-1 Cells THP-1 cells were purchased from the American Type Culture Collection and sub-cultured according to instructions from the supplier. Prior to experiments, cells were cultured in RPMI 1640 containing 10% heat inactivated FBS, penicillin (100 units/ml) and streptomycin (100 μg/ml), and maintained in log phase prior to experimental setup. Prior to the experiment THP-1 were treated with PMA (Phorbol 12-myristate 13-acetate) (10 μg/ml) for 24 hours. The day of the experiment the media was removed and attaching cells were treated with trypsin for 2 minutes, cells were then collected, washed with PBS (phosphate buffer saline), spin down, resuspended in 2% heat inactivated FBS with RPMI at a concentration of 1×10^6 cells/ml, and 100 μl was plated in a 96 well plate. Compounds were dissolved in dimethyl sulfoxide (DMSO) and added to the culture medium to achieve desired concentration (e.g. 100, 30, 10, 3, 1, 0.3 or 0.1 μM). Cells were incubated with compounds for 4 hours. Cell free supernatant was collected and the production of IL-1β was evaluated by ELISA. A vehicle only control was run concurrently with each experiment. Final DMSO concentration was 1%.

SMILES	EC50 (human TLR7)	EC50 (human TLR8)	IC50 [1]
CNC(=O)CCNc1cc(N)nc2cc(-c3ccn[nH]3)ccc12 [Compound 139]	> 100 µM	> 100 µM	2.01 µM
CS(=O)(=O)CCNc1cc(N)nc2cc(-c3ccn[nH]3)ccc12 [Compound 140]	> 100 µM	> 100 µM	1.41 µM
Nc1cc(N2CC[C@H](O)C2)c2ccc(-c3ccn[nH]3)cc2n1 [Compound 142]	> 100 µM	> 100 µM	1.43 µM
Nc1cc(N2CC[C@@H](O)C2)c2ccc(-c3ccn[nH]3)cc2n1 [Compound 143]	> 100 µM	> 100 µM	5.81 µM
Nc1cc(NCCCCO)c2ccc(-c3ccn[nH]3)cc2n1 [Compound 144]	> 100 µM	> 100 µM	0.48 µM
Nc1cc(N2CCC(O)CC2)c2ccc(-c3ccn[nH]3)cc2n1 [Compound 145]	> 100 µM	> 100 µM	2.55 µM
Nc1cc(NCCNC(=O)c2ccccc2)c2ccc(-c3ccn[nH]3)cc2n1 [Compound 146]	> 100 µM	> 100 µM	4.07 µM
Nc1cc(NCC2(O)CC2)c2ccc(-c3ccn[nH]3)cc2n1 [Compound 147]	> 100 µM	> 100 µM	0.99 µM
Nc1cc(NCc2ccncc2)c2ccc(-c3ccn[nH]3)cc2n1 [Compound 148]	> 100 µM	> 100 µM	1.64 µM
Nc1cc(NCc2cccnn2)c2ccc(-c3ccn[nH]3)cc2n1 [Compound 149]	> 100 µM	> 100 µM	0.14 µM
Nc1cc(NCc2cccnc2)c2ccc(-c3ccn[nH]3)cc2n1 [Compound 150]	> 100 µM	> 100 µM	0.22 µM
Nc1cc(NCCc2ccccn2)c2ccc(-c3ccn[nH]3)cc2n1 [Compound 151]	> 100 µM	> 100 µM	0.31 µM
Nc1cc(NCCn2ccnc2)c2ccc(-c3ccn[nH]3)cc2n1 [Compound 152]	> 100 µM	> 100 µM	1.03 µM
Nc1cc(NC[C@H](O)CO)c2ccc(-c3ccn[nH]3)cc2n1 [Compound 153]	> 100 µM	> 100 µM	1.11 µM
Nc1cc(NCC(O)c2cccnc2)c2ccc(-c3ccn[nH]3)cc2n1 (stereo not drawn) [Compound 154]	> 100 µM	> 100 µM	0.44 µM
Nc1cc(NCC(O)c2ccccn2)c2ccc(-c3ccn[nH]3)cc2n1 (stereo not drawn) [Compound 155]	> 100 µM	> 100 µM	0.42 µM
Cc1nc(CNc2cc(N)nc3cc(-c4ccn[nH]4)ccc23)cs1 [Compound 156]	> 100 µM	> 100 µM	0.2 µM
CC(=O)N[C@H]1CCN(c2cc(N)nc3cc(-c4ccn[nH]4)ccc23)C1 [Compound 158]	> 100 µM	> 100 µM	35.8 µM
Nc1cc(NCc2cnc[nH]2)c2ccc(-c3ccn[nH]3)cc2n1 [Compound 159]	> 100 µM	> 100 µM	0.52 µM
Nc1cc(N[C@H]2CCCC[C@@H]2O)c2ccc(-c3ccn[nH]3)cc2n1 [Compound 160]	> 100 µM	> 100 µM	2.76 µM
Nc1cc(NCC(F)(F)c2ccccn2)c2ccc(-c3ccn[nH]3)cc2n1 [Compound 161]	> 100 µM	> 100 µM	0.15 µM
Nc1cc(N[C@@H]2CCCC[C@H]2O)c2ccc(-c3ccn[nH]3)cc2n1 [Compound 162]	> 100 µM	> 100 µM	2.49 µM
Nc1cc(NCCn2cncn2)c2ccc(-c3ccn[nH]3)cc2n1 [Compound 163]	> 100 µM	> 100 µM	0.16 µM
Nc1cc(N2CCc3ncccc3C2)c2ccc(-c3ccn[nH]3)cc2n1 [Compound 164]	> 100 µM	> 100 µM	1.91 µM
C[C@@H](CO)Nc1cc(N)nc2cc(-c3ccn[nH]3)ccc12 [Compound 165]	> 100 µM	> 100 µM	0.47 µM
